Source: PMC7911295, “Metabolism of Zearalenone in the Rumen of Dairy Cows with and without Application of a Zearalenone-Degrading Enzyme” (Toxins, 2021)

Experiments:
[1] = Feeding trial in rumen-fistulated dairy cows: ZEN and ZEN metabolites in feces; type: in vivo, Holstein Friesian cows; settings: for Percentage of concentration relative to the sum of ZEN and ZEN metabolite concentrations: feces
From the text: (§1) Ruminal metabolism of ZEN with and without supplementation of ZenA was investigated in four rumen-fistulated Holstein Friesian cows (sex: female; age at start: 5.9 ± 1.0 years; body weight at start: 863 ± 65 kg; physiological stage: non-lactating; general health: good, non-gestating; identification procedure: ear tag 4-digit code). The cows were part of the dairy herd of VetFarm (Teaching and Research Farm) of the University of Veterinary Medicine Vienna in Kremesberg, Austria. All procedures related to these experiments were performed according to Austrian law and following the European Guidelines for the Care and Use of Animals for Research Purpose. The animal experiment was approved by ethics and animal welfare commission of the University of Veterinary Medicine, Vienna and the Austrian Federal Ministry of Education, Science and Research (68.205/0156-WF/V/3b/2017, 30.08.2017).
(§2) In our trial setup, each animal was considered an experimental unit (n = 4). Each animal received the same treatment and served as its own control. First, each animal received ZEN-contaminated concentrate feed. Following a 48-h washout period, each animal received ZEN-contaminated concentrate feed supplemented with ZenA. In brief, for acclimatization, on the day prior to the start of the feeding trial, each animal was manually fed 4 × 500 g of control concentrate (Table 4 and Table 5). Thereafter, animals were manually fed (i) 1 × 500 g concentrate contaminated with ZEN and 3 × 500 g control concentrate on experimental day 1 (ZEN treatment), (ii) 4 × 500 g control concentrate on day 2 (ZEN washout), (iii) 1 × 500 g ZEN-contaminated concentrate supplemented with ZenA and 3 × 500 g control concentrate on day 3 (ZEN+ZenA treatment), and (iv) 4 × 500 g control concentrate on day 4 (ZEN+ZenA washout; Table 6). Animals were treated and assessed in the same random order at each experimental time point.
On days 1 and 3 of the experiment, feces samples were taken from the rectum immediately before concentrate feeding (0 h), as well as 10 h after concentrate feeding (Table 6) and stored at −20 °C. Aliquots (500 mg) of thoroughly homogenized feces samples were extracted for HPLC-MS/MS analysis according to the method described by Binder and coworkers.
HPLC-MS/MS analysis of ZEN, α-ZEL, β-ZEL, HZEN and DHZEN in rumen fluid and feces was performed as described for the in vitro rumen fermentation experiment (see section “In Vitro Rumen Fermentation Experiment”, subsection “Analysis of ZEN and its Metabolites”), with the following modifications. Chromatographic separation was performed with a flow rate of 0.6 mL/min, a duration of 4 min and an injection volume was 1 µL. The gradient started at 30% B which was held for 0.3 min. Subsequently, the proportion of B was increased to 80% from 0.3 to 2 min, and increased to 100% from 2 to 2.1 min. […] LODs for ZEN, α-ZEL, β-ZEL, HZEN and DHZEN in rumen fluid were 2.83 nmol/L (0.9 µg/L), 2.81 nmol/L (0.9 µg/L), 2.81 nmol/L (0.9 µg/L), 2.68 nmol/L (0.9 µg/L) and 10.27 nmol/L (3 µg/L), respectively. LOQs for ZEN, α-ZEL, β-ZEL, HZEN and DHZEN in rumen fluid were 9.43 nmol/L (3 µg/L), 9.37 nmol/L (3 µg/L), 9.37 nmol/L (3 µg/L), 8.93 nmol/L (3 µg/L) and 30.81 nmol/L (9 µg/L), respectively. LODs for ZEN, α-ZEL, β-ZEL, HZEN and DHZEN in feces were 0.03 nmol/g (8.4 ng/g), 0.03 nmol/g (8.4 ng/g), 0.03 nmol/g (8.4 ng/g), 0.03 nmol/g (8.4 ng/g) and 0.10 nmol/g (28 ng/g), respectively. LOQs for ZEN, α-ZEL, β-ZEL, HZEN and DHZEN in feces were 0.09 nmol/g (28 ng/g), 0.09 nmol/g (28 ng/g), 0.09 nmol/g (28 ng/g), 0.08 nmol/g (28 ng/g) and 0.29 nmol/g (84 ng/g), respectively.

[2] = for Detection in reactors: reactors incubated with ZEN without ZenA, any time point
[3] = test system: MCF-7 cell; design: method as in PMID 12596876, PMID 31434326; settings: cited from earlier work
[4] = test system: pigs; design: method as in PMID 31434326; settings: in contrast to ZEN; cited from earlier work
[5] = Feeding trial in rumen-fistulated dairy cows: ZEN and ZEN metabolites in rumen fluid from reticulum, dorsal mat layer and ventral sac; type: in vivo, Holstein Friesian cows; settings: for Detection in rumen fluid: any reticulorumen location
From the text: as §1, §2
For production of ZEN-contaminated concentrate feed, lyophilizate of ZEN with maltodextrin as a carrier was prepared. To this end, in three parallel preparations, 50 mg ZEN (Fermentek, Jerusalem, Israel) was dissolved in 1 L RO water (pH 12; adjusted with NaOH) using a magnetic stirrer set to 400 rpm and 37 °C for 20 min. Subsequently, 100 g maltodextrin DE19 (Agrana, Vienna, Austria) was added and dissolved by stirring (400 rpm) at room temperature for 10 min. The solution was lyophilized. Lyophilizate was mixed into concentrate feed at an inclusion rate of 2%. The final concentration of ZEN in feed was aimed to be 10 mg/kg and was verified using HPLC-MS/MS analysis as described below. For production of ZEN-contaminated, ZenA-supplemented concentrate, a zearalenone hydrolase ZenA preparation (ZENzyme®; EC 3.1.1.-; BIOMIN Holding GmbH, Getzersdorf, Austria) was mixed into ZEN-contaminated concentrate to achieve an activity of 128 U/kg feed. Same as in the in vitro trial, 1 U of ZenA was defined as the enzyme activity that hydrolyzes 1 μmol ZEN per minute from 15.71 µM ZEN in Teorell Stenhagen buffer adjusted to pH 7.5 containing 0.1 mg/mL bovine serum albumin at 37 °C.
On days 1 and 3 of the trial (ZEN and ZEN+ZenA treatment, respectively), ruminal digesta samples were taken from reticulum, ventral sac and dorsal mat layer (Figure 3) immediately before concentrate feeding (0 h), as well as 15 min, 1 h, 2 h, 4 h, 7 h and 10 h after concentrate feeding (Table 6). On days 2 and 4 of the trial (washout days), ruminal digesta samples were taken immediately before first concentrate feeding (0 h), as well as 10 h after first concentrate feeding (Table 6). Ruminal digesta samples (10 mL) were taken via a rumen fistula from reticulum and ventral sac (10 cm above the bottom of the rumen) using a pump as described previously. Samples were taken from the dorsal mat layer 20 cm below the gas phase and rumen fluid was obtained by manually squeezing the samples as described previously. Samples were mixed 1:2 with acetonitrile by vortexing. […]

[6] = test system: estrogen-sensitive yeast; design: method as in PMID 31434326; settings: cited from earlier work
[7] = ZEN+ZenA treatment, 0 h (48 h after ZEN treatment)
[8] = reticulorumen, ZEN treatment, 15 min after feeding, from median of 3 locations
[9] = reticulorumen, ZEN treatment, 1 h
[10] = reticulorumen, ZEN treatment, 4 h
[11] = reticulorumen, ZEN treatment, 7 h
[12] = reticulorumen, ZEN treatment, 10 h
[13] = reticulorumen, ZEN treatment, 24 h
[14] = reticulorumen, ZEN+ZenA treatment, 15 min
[15] = reticulorumen, ZEN+ZenA treatment, 1 h
[16] = reticulorumen, ZEN+ZenA treatment, 4 h
[17] = reticulorumen, ZEN+ZenA treatment, 7 h
[18] = reticulorumen, ZEN+ZenA treatment, 10 h

SMILES	Percentage of concentration relative to the sum of ZEN and ZEN metabolite concentrations ([1]; ZEN treatment, 10 h) [%]	Percentage of concentration relative to the sum of ZEN and ZEN metabolite concentrations [1, 7] [%]	Percentage of concentration relative to the sum of ZEN and ZEN metabolite concentrations ([1]; ZEN+ZenA treatment, 10 h) [%]	Detection in reactors [2]	Estrogenic response [3]	Effect on reproductive tract morphology or expression of ZEN-responsive microRNAs [4]	Detection in rumen fluid ([5]; ZEN treatment)	Percentage of concentration relative to the sum of ZEN and ZEN metabolite concentrations [5, 8] [%]	Percentage of concentration relative to the sum of ZEN and ZEN metabolite concentrations [5, 9] [%]	Percentage of concentration relative to the sum of ZEN and ZEN metabolite concentrations [5, 10] [%]	Percentage of concentration relative to the sum of ZEN and ZEN metabolite concentrations [5, 11] [%]	Percentage of concentration relative to the sum of ZEN and ZEN metabolite concentrations [5, 12] [%]	Percentage of concentration relative to the sum of ZEN and ZEN metabolite concentrations [5, 13] [%]	Percentage of concentration relative to the sum of ZEN and ZEN metabolite concentrations [5, 14] [%]	Percentage of concentration relative to the sum of ZEN and ZEN metabolite concentrations [5, 15] [%]	Percentage of concentration relative to the sum of ZEN and ZEN metabolite concentrations [5, 16]	Percentage of concentration relative to the sum of ZEN and ZEN metabolite concentrations [5, 17]	Percentage of concentration relative to the sum of ZEN and ZEN metabolite concentrations [5, 18]	Estrogenic response [6]	also measured
C[C@H](O)CCCC(=O)CCC/C=C/c1cc(O)cc(O)c1 [DHZEN, decarboxylated hydrolyzed zearalenone]	0.0	0.0	0.0	not detected	did not elicit an estrogenic response	did not affect	not detected	0.0	0.0	0.0	0.0	0.0	0.0	0.0	0.0	0.0 (traces) %	0.0 (traces) %	0.0 (traces) %	did not elicit an estrogenic response	Detection in feces ([1]; ZEN and ZEN+ZenA treatments, any sample): not detected; First detected (time after start of incubation) ([2]; reactors incubated with ZEN and ZenA (100 U/kg feed)): 2 h
C[C@H](O)CCCC(=O)CCC/C=C/c1cc(O)cc(O)c1C(=O)O [HZEN, hydrolyzed zearalenone]	0.0	0.0	31.9	not detected	did not elicit an estrogenic response	did not affect	not detected	0.0	0.0	0.0	0.0	0.0	0.0	94.1	100.0	100.0%	100.0%	100.0%	did not elicit an estrogenic response	Not detected anymore at (time after concentrate feeding) ([5]; reticulorumen, ZEN+ZenA treatment): 24 h
